# Target: T1, Bcl-2 protein (Recombinant Human Bcl-2 Protein) (Homo sapiens, UniProt P10415)
# T1 construct: purchased Novus Biologicals NBP2-34889
# Assay: AS-MS evaluation of binding of the Example 4 mixture library (1200 compounds/well) to Bcl-2, ASMS ratio (%)
# Conditions: AS-MS, Example 4 mixture library; for ASMS ratio (%) n = 2: Bcl-2, replicate n = 2; for ASMS ratio (%) n = 1: Bcl-2, replicate n = 1
# Summary of the method: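 Affinity-selection MS: 1200 cpds/well, 20 nM each; hBcl-2 20 μM; 25 mM Tris pH 7.4/150 mM NaCl/0.025% Tween-20/1 mM DTT; 1 h, 23 °C, dark; P-2 size-exclusion spin, MeCN:MeOH 1:1 extraction; RP LC/MS; ratio vs no-protein STD and SEC blank.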
# T1 sequence (P10415 whole entry): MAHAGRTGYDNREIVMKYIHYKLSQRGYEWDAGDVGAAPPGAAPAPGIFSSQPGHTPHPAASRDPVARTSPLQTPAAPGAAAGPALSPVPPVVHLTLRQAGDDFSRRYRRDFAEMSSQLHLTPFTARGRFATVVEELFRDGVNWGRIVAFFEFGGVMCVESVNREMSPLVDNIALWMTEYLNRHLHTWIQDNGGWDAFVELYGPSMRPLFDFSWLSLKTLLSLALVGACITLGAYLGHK
Structure (SMILES),ASMS ratio (%) n = 2,ASMS ratio (%) n = 1
"CCOc1cccc(-c2cc(CN3CCN(c4ccc(C(=O)NS(=O)(=O)CCC(F)(F)F)nn4)CC3)cc(OC(F)(F)F)c2)c1 [Compound B2N089-01, 6-[4-[[3-(3-Ethoxyphenyl)-5-(trifluoromethoxy)phenyl]methyl]piperazin-1-yl]-N-(3,3,3-trifluoropropylsulfonyl)pyridazine-3-carboxamide]",0.0%,–
"CCOc1cncc(-c2cc(CN3CCN(c4ccc(C(=O)NS(=O)(=O)CCC(F)(F)F)nn4)CC3)cc(OC(F)(F)F)c2)c1 [Compound B2N090-01, 6-[4-[[3-(5-Ethoxypyridin-3-yl)-5-(trifluoromethoxy)phenyl]methyl]piperazin-1-yl]-N-(3,3,3-trifluoropropylsulfonyl)pyridazine-3-carboxamide]",0.0%,0.0%
"CCOc1cccc(-c2ccc(CN3CCN(c4ccc(C(=O)NS(=O)(=O)CCC(F)(F)F)nn4)CC3)c3ccccc23)c1 [Compound B2N091-01, 6-[4-[[4-(3-Ethoxyphenyl)naphthalen-1-yl]methyl]piperazin-1-yl]-N-(3,3,3-trifluoropropylsulfonyl)pyridazine-3-carboxamide]",0.0%,0.0%
"CCOc1cncc(-c2ccc(CN3CCN(c4ccc(C(=O)NS(=O)(=O)CCC(F)(F)F)nn4)CC3)c3ccccc23)c1 [Compound B2N092-01, 6-[4-[[4-(5-Ethoxypyridin-3-yl)naphthalen-1-yl]methyl]piperazin-1-yl]-N-(3,3,3-trifluoropropylsulfonyl)pyridazine-3-carboxamide]",0.0%,0.0%
CCOc1cccc(-c2csc(CN3CCN(c4ccc(C(=O)NS(=O)(=O)CCC(F)(F)F)nn4)CC3)c2)c1 [Compound B2N093-01],–,0.0%
"CCOc1cncc(-c2csc(CN3CCN(c4ccc(C(=O)NS(=O)(=O)CCC(F)(F)F)nn4)CC3)c2)c1 [Compound B2N094-01, 6-[4-[[4-(5-Ethoxypyridin-3-yl)thiophen-2-yl]methyl]piperazin-1-yl]-N-(3,3,3-trifluoropropylsulfonyl)pyridazine-3-carboxamide]",0.0%,0.0%
CCOc1cccc(C#Cc2ccccc2CN2CCN(c3ccc(C(=O)NS(=O)(=O)CCC(F)(F)F)nn3)CC2)c1 [Compound B2N095-01],0.0%,0.0%
"CCOc1cccc(-c2ccc(C(C)N3CCN(c4ccc(C(=O)NS(=O)(=O)CCC(F)(F)F)cc4)CC3)cc2)c1 (centres unmarked) [Compound B2N097-01, 4-[4-[1-[4-(3-Ethoxyphenyl)phenyl]ethyl]piperazin-1-yl]-N-(3,3,3-trifluoropropylsulfonyl)benzamide]",0.0%,0.0%
"CCOc1cncc(-c2ccc(C(C)N3CCN(c4ccc(C(=O)NS(=O)(=O)CCC(F)(F)F)cc4)CC3)cc2)c1 (centres unmarked) [Compound B2N098-01, 4-[4-[1-[4-(5-Ethoxypyridin-3-yl)phenyl]ethyl]piperazin-1-yl]-N-(3,3,3-trifluoropropylsulfonyl)benzamide]",−0.7%,0.0%
"CCOc1cccc(-c2ccc(C(C)N3CCN(c4ccc(C(=O)NS(=O)(=O)CCC(F)(F)F)cc4)CC3)c(F)c2)c1 (centres unmarked) [Compound B2N099-01, 4-[4-[1-[4-(3-Ethoxyphenyl)-2-fluorophenyl]ethyl]piperazin-1-yl]-N-(3,3,3-trifluoropropylsulfonyl)benzamide]",0.0%,0.0%
"CCOc1cncc(-c2ccc(C(C)N3CCN(c4ccc(C(=O)NS(=O)(=O)CCC(F)(F)F)cc4)CC3)c(F)c2)c1 (centres unmarked) [Compound B2N100-01, 4-[4-[1-[4-(5-Ethoxypyridin-3-yl)-2-fluorophenyl]ethyl]piperazin-1-yl]-N-(3,3,3-trifluoropropylsulfonyl)benzamide]",0.0%,0.0%
